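GI50 marks 50% less growth. At the TGI there is no net growth.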
Columns and labels:
Assay in all cases: NCI-60 cell line screen, 384-well format
MALME-3M melanoma = test system: MALME-3M melanoma
NCI-H226 lung = test system: NCI-H226 lung
BT-549 breast = test system: BT-549 breast
A498 renal = test system: A498 renal
NCI-H460 NSCLC = test system: NCI-H460 NSCLC
OVCAR-4 ovarian = test system: OVCAR-4 ovarian
UACC-62 melanoma = test system: UACC-62 melanoma
DU-145 prostate = test system: DU-145 prostate
UACC-257 melanoma = test system: UACC-257 melanoma
COLO 205 colon = test system: COLO 205 colon
TK-10 renal = test system: TK-10 renal
ACHN renal = test system: ACHN renal
EKVX NSCLC = test system: EKVX NSCLC
NCI-H23 lung = test system: NCI-H23 lung
A549 NSCLC = test system: A549 NSCLC
T-47D breast = test system: T-47D breast
SF-268 CNS = test system: SF-268 CNS
SNB-75 CNS = test system: SNB-75 CNS
LOX IMVI melanoma = test system: LOX IMVI melanoma
SNB-19 CNS = test system: SNB-19 CNS
MDA-MB-468 breast = test system: MDA-MB-468 breast
CAKI-1 renal = test system: CAKI-1 renal
IGROV1 ovarian = test system: IGROV1 ovarian
786-0 renal = test system: 786-0 renal
MDA-MB-435 melanoma = test system: MDA-MB-435 melanoma
UO-31 renal = test system: UO-31 renal
SN12C renal = test system: SN12C renal
KM12 colon = test system: KM12 colon
HT29 colon = test system: HT29 colon
CCRF-CEM leukemia = test system: CCRF-CEM leukemia
HOP-62 NSCLC = test system: HOP-62 NSCLC
SK-MEL-5 melanoma = test system: SK-MEL-5 melanoma
SF-295 CNS = test system: SF-295 CNS
OVCAR-8 ovarian = test system: OVCAR-8 ovarian
NCI-H522 lung = test system: NCI-H522 lung
RXF 393 renal = test system: RXF 393 renal
HS 578T breast = test system: HS 578T breast
SF-539 CNS = test system: SF-539 CNS
OVCAR-5 ovarian = test system: OVCAR-5 ovarian
SK-MEL-28 melanoma = test system: SK-MEL-28 melanoma
MOLT-4 leukemia = test system: MOLT-4 leukemia
HOP-92 NSCLC = test system: HOP-92 NSCLC
NCI/ADR-RES ovarian = test system: NCI/ADR-RES ovarian
HL-60(TB) leukemia = test system: HL-60(TB) leukemia
SW-620 colon = test system: SW-620 colon
HCT-15 colon = test system: HCT-15 colon
OVCAR-3 ovarian = test system: OVCAR-3 ovarian
PC-3 prostate = test system: PC-3 prostate
NCI-H322M lung = test system: NCI-H322M lung
HCC-2998 colon = test system: HCC-2998 colon
RPMI-8226 leukemia = test system: RPMI-8226 leukemia
U251 glioblastoma = test system: U251 glioblastoma
M14 melanoma = test system: M14 melanoma
HCT-116 colon = test system: HCT-116 colon
SK-OV-3 ovarian = test system: SK-OV-3 ovarian

Cc1cc(Cl)cc(OCCn2cc(F)cn2)c1-c1nc(N)nc2c1CN(C(=O)NCC(C)(F)F)C2
GI50 (MALME-3M melanoma): 30.7 nM | TGI (MALME-3M melanoma): 85.2 nM | GI50 (NCI-H226 lung): 174 nM | TGI (NCI-H226 lung): 842 nM | GI50 (BT-549 breast): 36.3 nM | TGI (BT-549 breast): 769 nM | GI50 (A498 renal): 149 nM | TGI (A498 renal): > 100000 nM | GI50 (NCI-H460 NSCLC): 34.2 nM | TGI (NCI-H460 NSCLC): 106 nM | GI50 (OVCAR-4 ovarian): > 100000 nM | TGI (OVCAR-4 ovarian): > 100000 nM | GI50 (UACC-62 melanoma): 54.3 nM | TGI (UACC-62 melanoma): 300 nM | GI50 (DU-145 prostate): 40.5 nM | TGI (DU-145 prostate): 1750 nM | GI50 (UACC-257 melanoma): 394 nM | TGI (UACC-257 melanoma): > 100000 nM | GI50 (COLO 205 colon): 30.6 nM | TGI (COLO 205 colon): 136 nM | GI50 (TK-10 renal): 275 nM | TGI (TK-10 renal): 12700 nM | GI50 (ACHN renal): 389 nM | TGI (ACHN renal): > 100000 nM | GI50 (EKVX NSCLC): 90.2 nM | TGI (EKVX NSCLC): 31100 nM | GI50 (NCI-H23 lung): 32.1 nM | TGI (NCI-H23 lung): 95.4 nM | GI50 (A549 NSCLC): 45.6 nM | TGI (A549 NSCLC): > 100000 nM | GI50 (T-47D breast): 43.8 nM | TGI (T-47D breast): 307 nM | GI50 (SF-268 CNS): 24 nM | TGI (SF-268 CNS): 63.2 nM | GI50 (SNB-75 CNS): 152 nM | TGI (SNB-75 CNS): 664 nM | GI50 (LOX IMVI melanoma): 35.7 nM | TGI (LOX IMVI melanoma): 129 nM | GI50 (SNB-19 CNS): 122 nM | TGI (SNB-19 CNS): 24400 nM | GI50 (MDA-MB-468 breast): 34 nM | TGI (MDA-MB-468 breast): 76 nM | GI50 (CAKI-1 renal): 163 nM | TGI (CAKI-1 renal): > 100000 nM | GI50 (IGROV1 ovarian): 40.2 nM | TGI (IGROV1 ovarian): 443 nM | GI50 (786-0 renal): 59.3 nM | TGI (786-0 renal): 5810 nM | GI50 (MDA-MB-435 melanoma): 83.1 nM | TGI (MDA-MB-435 melanoma): > 100000 nM | GI50 (UO-31 renal): 394 nM | TGI (UO-31 renal): 56100 nM | GI50 (SN12C renal): 51.6 nM | TGI (SN12C renal): 316 nM | GI50 (KM12 colon): 37.3 nM | TGI (KM12 colon): 802 nM | GI50 (HT29 colon): 35 nM | TGI (HT29 colon): 16800 nM | GI50 (CCRF-CEM leukemia): 29.1 nM | TGI (CCRF-CEM leukemia): 94.1 nM | GI50 (HOP-62 NSCLC): 65.1 nM | TGI (HOP-62 NSCLC): > 100000 nM | GI50 (SK-MEL-5 melanoma): 47.2 nM | TGI (SK-MEL-5 melanoma): > 100000 nM | GI50 (SF-295 CNS): 58.9 nM | TGI (SF-295 CNS): 230 nM | GI50 (OVCAR-8 ovarian): 43.1 nM | TGI (OVCAR-8 ovarian): 181 nM | GI50 (NCI-H522 lung): 23.9 nM | TGI (NCI-H522 lung): 45.7 nM | GI50 (RXF 393 renal): 41.3 nM | TGI (RXF 393 renal): 842 nM | GI50 (HS 578T breast): 46.8 nM | TGI (HS 578T breast): 302 nM | GI50 (SF-539 CNS): 26.1 nM | TGI (SF-539 CNS): 62.8 nM | GI50 (OVCAR-5 ovarian): 115 nM | TGI (OVCAR-5 ovarian): > 100000 nM | GI50 (SK-MEL-28 melanoma): 71.5 nM | TGI (SK-MEL-28 melanoma): > 100000 nM | GI50 (MOLT-4 leukemia): 17.5 nM | TGI (MOLT-4 leukemia): 34.7 nM | GI50 (HOP-92 NSCLC): 73.3 nM | TGI (HOP-92 NSCLC): 279 nM | GI50 (NCI/ADR-RES ovarian): 5110 nM | TGI (NCI/ADR-RES ovarian): 63000 nM | GI50 (HL-60(TB) leukemia): 32.5 nM | TGI (HL-60(TB) leukemia): 71.2 nM | GI50 (SW-620 colon): 38.5 nM | TGI (SW-620 colon): 268 nM | GI50 (HCT-15 colon): 339 nM | TGI (HCT-15 colon): > 100000 nM | GI50 (OVCAR-3 ovarian): 41.6 nM | TGI (OVCAR-3 ovarian): 939 nM | GI50 (PC-3 prostate): 86.7 nM | TGI (PC-3 prostate): 533 nM | GI50 (NCI-H322M lung): 136 nM | TGI (NCI-H322M lung): > 100000 nM | GI50 (HCC-2998 colon): 21.5 nM | TGI (HCC-2998 colon): 71.4 nM | GI50 (RPMI-8226 leukemia): 57 nM | TGI (RPMI-8226 leukemia): 305 nM | GI50 (U251 glioblastoma): 37.9 nM | TGI (U251 glioblastoma): 130 nM | GI50 (M14 melanoma): 40.8 nM | TGI (M14 melanoma): > 100000 nM | GI50 (HCT-116 colon): 68.5 nM | TGI (HCT-116 colon): 18200 nM | GI50 (SK-OV-3 ovarian): 121 nM | TGI (SK-OV-3 ovarian): > 100000 nM

From PubChem BioAssay (NCI)
